Measured values taken from patent US10722514B2 (FLX Bio, Inc., priority 2017, dated 2020).
Where a name gives a salt, the structure may show the parent alone.

Molecular target: T1, recombinant full-length USP7 (Homo sapiens, UniProt Q93009)
T1 construct: A 25 μl reaction volume containing recombinant full-length USP7 (62 pM)
Assay: USP7-mediated ubiquitin-rhodamine cleavage assay
Format: biochemical
Details: recombinant full-length USP7 62 pM; ubiquitin-rhodamine 100 nM; 30-minute incubation with compound, 1 hour reaction at room temperature; read-out: Potency: USP7 IC50
Procedure, shortened: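 Full-length recombinant USP7 (62 pM) in 20 mM HEPES pH 7.3, 150 mM NaCl, 1 mM TCEP, 125 μg/ml BSA, 1% DMSO, preincubated with compound 30 min at RT. Ubiquitin-rhodamine (100 nM final) cleaved 1 h at RT in the dark, stopped with acetic acid; rhodamine fluorescence read, IC50 by 4-parameter nonlinear fit.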

T1 sequence (Q93009 whole entry): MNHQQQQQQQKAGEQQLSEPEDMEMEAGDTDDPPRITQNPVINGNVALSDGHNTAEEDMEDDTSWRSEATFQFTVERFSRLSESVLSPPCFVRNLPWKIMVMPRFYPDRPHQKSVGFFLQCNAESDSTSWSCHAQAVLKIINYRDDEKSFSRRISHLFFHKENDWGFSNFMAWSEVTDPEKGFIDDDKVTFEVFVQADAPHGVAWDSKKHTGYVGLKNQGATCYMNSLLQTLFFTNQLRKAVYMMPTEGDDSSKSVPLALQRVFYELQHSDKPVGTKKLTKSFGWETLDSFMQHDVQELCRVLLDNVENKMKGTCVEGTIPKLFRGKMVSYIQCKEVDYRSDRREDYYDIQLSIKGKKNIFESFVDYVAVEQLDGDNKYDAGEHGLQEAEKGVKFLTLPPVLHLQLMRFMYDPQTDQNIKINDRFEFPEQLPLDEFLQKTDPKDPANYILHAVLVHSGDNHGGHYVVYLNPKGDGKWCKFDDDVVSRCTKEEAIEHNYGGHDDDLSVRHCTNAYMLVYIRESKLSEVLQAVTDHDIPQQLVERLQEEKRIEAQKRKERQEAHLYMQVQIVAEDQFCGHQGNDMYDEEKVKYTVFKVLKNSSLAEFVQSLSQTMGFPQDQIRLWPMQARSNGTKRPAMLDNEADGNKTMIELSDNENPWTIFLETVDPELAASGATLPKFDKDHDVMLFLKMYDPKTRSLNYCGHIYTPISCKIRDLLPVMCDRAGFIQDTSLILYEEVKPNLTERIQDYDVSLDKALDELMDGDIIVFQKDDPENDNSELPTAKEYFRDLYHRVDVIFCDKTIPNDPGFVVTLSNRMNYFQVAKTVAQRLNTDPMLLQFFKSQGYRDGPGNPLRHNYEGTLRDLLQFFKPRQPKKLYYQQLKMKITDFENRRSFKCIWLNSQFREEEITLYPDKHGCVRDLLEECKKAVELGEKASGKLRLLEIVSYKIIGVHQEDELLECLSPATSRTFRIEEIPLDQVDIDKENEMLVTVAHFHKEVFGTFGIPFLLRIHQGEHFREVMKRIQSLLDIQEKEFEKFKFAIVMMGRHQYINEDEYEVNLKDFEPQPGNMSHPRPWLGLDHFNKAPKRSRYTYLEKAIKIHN

SMILES	IC50 [nM]
Cc1cc(Cl)cc(-c2ncnc3cc(CN4C(=O)C5C(C4=O)C5(C)C)sc23)c1O[C@@H]1CNCC(C)(C)C1 (stereo partly drawn) [Example 361, 3-[[4-[5-chloro-2-[[(3S)-5,5-dimethyl-3-piperidyl]oxy]-3-methyl-phenyl]thieno[3,2-d]pyrimidin-6-yl]methyl]-6,6-dimethyl-3-azabicyclo[3.1.0]hexane-2,4-dione]	< 1000
Cc1cc(Cl)cc(-c2ccnc3cc(CN4C(=O)C5C(C4=O)C5(C)C)sc23)c1OC1CNCC(C)(C)C1 [Example 362, 3-[[7-[5-chloro-2-[[(3S)-5,5-dimethyl-3-piperidyl]oxy]-3-methyl-phenyl]thieno[3,2-b]pyridin-2-yl]methyl-6,6-dimethyl-3-azabicyclo[3.1.0]hexane-2,4-dione]	< 1000
Cc1cc(Cl)cc(-c2ccnc3cc(CN4C(=O)C5C(C4=O)C5(C)C)sc23)c1O[C@H]1CCCN[C@H]1C (stereo partly drawn) [Example 363, 3-[[7-[5-chloro-3-methyl-2-[[(2S,3S)-2-methyl-3-piperidyl]oxy]phenyl]thieno[3,2-b]pyridin-2-yl]methyl]-6,6-dimethyl-3-azabicyclo[3.1.0]hexane-2,4-dione; 2,2,2-trifluoroacetic acid]	< 1000
Cc1cc(Cl)cc(-c2ccnc3cc(CN4C(=O)C5C(C4=O)C5(C)C)sc23)c1O[C@H]1CCCN[C@@H]1C (stereo partly drawn) [Example 364, 3-[[7-[5-chloro-3-methyl-2-[[(2R,3S)-2-methyl-3-piperidyl]oxy]phenyl]thieno[3,2-b]pyridin-2-yl]methyl]-6,6-dimethyl-3-azabicyclo[3.1.0]hexane-2,4-dione; 2,2,2-trifluoroacetic acid]	< 1000
Cc1cc(Cl)cc(-c2ncnc3cc(CN4C(=O)C5C(C4=O)C5(C)C)sc23)c1O[C@@H]1CCNC[C@@H]1C (stereo partly drawn) [Example 365, 3-[[4-[5-chloro-3-methyl-2-[[(3S,4R)-3-methyl-4-piperidyl]oxy]phenyl]thieno[3,2-d]pyrimidin-6-yl]methyl]-6,6-dimethyl-3-azabicyclo[3.1.0]hexane-2,4-dione dihydrochloride]	< 1000
Cc1cc(Cl)cc(-c2ccnc3cc(CN4C(=O)C5C(C4=O)C5(C)C)sc23)c1O[C@@H]1CCNC[C@@H]1C (stereo partly drawn) [Example 366, 3-[[7-[5-chloro-3-methyl-2-[[(3S,4R)-3-methyl-4-piperidyl]oxy]phenyl]thieno[3,2-b]pyridin-2-yl]methyl]-6,6-dimethyl-3-azabicyclo[3.1.0]hexane-2,4-dione dihydrochloride]	< 1000
Cc1cc(Cl)cc(-c2ccnc3cc(CN4C(=O)C5C(C4=O)C5(C)C)sc23)c1OC1CCNC1(C)C (stereo not shown) [Example 368, 3-[[7-[5-chloro-2-(2,2-dimethylpyrrolidin-3-yl)oxy-3-methyl-phenyl]thieno[3,2-b]pyridin-2-yl]methyl]-6,6-dimethyl-3-azabicyclo[3.1.0]hexane-2,4-dione]	< 1000
Cc1cc(Cl)cc(-c2ccnc3cc(CN4C(=O)C5C(C4=O)C5(C)C)sc23)c1OC1CNCC1(C)C (stereo not shown) [Example 369, 3-[[7-[5-chloro-2-(4,4-dimethylpyrrolidin-3-yl)oxy-3-methyl-phenyl]thieno[3.2-b]pyridin-2-yl]methyl]-6,6-dimethyl-3-azabicyclo[3.1.0]hexane-2,4-dione]	< 1000
Cc1cc(Cl)cc(-c2ncnc3cc(CN4C(=O)C5C(C4=O)C5(C)C)sc23)c1OC1CCNC1(C)C (stereo not shown) [Example 370, 3-[[4-[5-chloro-2-(2,2-dimethylpyrrolidin-3-yl)oxy-3-methyl-phenyl]thieno[3,2-d]pyrimidin-6-yl]methyl]-6,6-dimethyl-3-azabicyclo[3.1.0]hexane-2,4-dione]	< 1000
Cc1cc(Cl)cc(-c2ncnc3cc(CN4C(=O)C5C(C4=O)C5(C)C)sc23)c1OC1CNCC1(C)C (stereo not shown) [Example 371, 3-[[4-[5-chloro-2-(4,4-dimethylpyrrolidin-3-yl)oxy-3-methyl-phenyl]thieno[3,2-d]pyrimidin-6-yl]methyl]-6,6-dimethyl-3-azabicyclo[3.1.0]hexane-2,4-dione]	< 1000
